Test results from patent US7285566B2, “Resistance-repellent retroviral protease inhibitors” (priority 2002, dated 2007).

What was measured:
D30N mutant HIV protease = D30N mutant HIV protease (Human immunodeficiency virus type 1 group M subtype B, UniProt P03367, D530N); test: Effect of D30N protease mutation on inhibitor binding
[1] = test system: highly cross-resistant clinical HIV-1 strains; test: In vitro activity against highly PI-resistant clinical HIV-1 strains from AIDS patients; type: cell-based; settings: for potency against the multidrug resistant strains of HIV: multidrug resistant vs wild type strains
Procedure: The sensitivities of HIV-1LAI, HIV-1Ba-L, HIV-2EHO and the primary HIV-1 isolates against various drugs were determined as previously described with minor modifications (Shiraska et al., Proc. Natl. Acad. Sci. USA, 92, 2398-2402 (1995)).

HIV-1UIC-P62 = test: Sensitivity of compound 1-selected HIV-1 (passage 62) to PIs; type: cell-based; settings: for sensitivity compared with the parental HIV-1NL4-3: HIV-1UIC-P62; for IC50 fold greater than that of HIV-1NL4-3: HIV-1UIC-P62 (passage 62 with 2 μM 1) vs parental HIV-1NL4-3

| Compound | effect of D30N mutation on binding (D30N mutant HIV protease) | potency against the multidrug resistant strains of HIV [1] | level of resistance of the clinical strains ([1]; compared to wild-type clinical strain HIV-1ERS104pre) | sensitivity compared with the parental HIV-1NL4-3 (HIV-1UIC-P62) | IC50 fold greater than that of HIV-1NL4-3 (HIV-1UIC-P62) [fold] |
| --- | --- | --- | --- | --- | --- |
| COc1ccc(S(=O)(=O)N(CC(C)C)C[C@@H](O)[C@H](Cc2ccccc2)NC(=O)O[C@H]2CO[C@H]3OCC[C@H]32)cc1 [Compound 1] | no effect |  |  |  |  |
| CC(C)CN(C[C@@H](O)[C@H](Cc1ccccc1)NC(=O)O[C@H]1CCOC1)S(=O)(=O)c1ccc(N)cc1 [Compound 2, Amprenavir] |  | dramatically less potent |  |  |  |
| CC(C)(C)NC(=O)[C@@H]1C[C@@H]2CCCC[C@@H]2CN1C[C@@H](O)[C@H](Cc1ccccc1)NC(=O)[C@H](CC(N)=O)NC(=O)c1ccc2ccccc2n1 [Compound 4, Saquinavir] |  | dramatically less potent | 3-31 fold | as sensitive |  |
| CC(C)c1nc(CN(C)C(=O)N[C@H](C(=O)N[C@@H](Cc2ccccc2)C[C@H](O)[C@H](Cc2ccccc2)NC(=O)OCc2cncs2)C(C)C)cs1 [Compound 5, Ritonavir] |  | dramatically less potent |  | as sensitive |  |
| CC(C)(C)NC(=O)[C@@H]1CN(Cc2cccnc2)CCN1C[C@@H](O)C[C@@H](Cc1ccccc1)C(=O)N[C@H]1c2ccccc2C[C@H]1O [Compound 6, Indinavir] |  | dramatically less potent |  |  | 7 |
| Cc1c(O)cccc1C(=O)N[C@@H](CSc1ccccc1)[C@H](O)CN1C[C@H]2CCCC[C@H]2C[C@H]1C(=O)NC(C)(C)C [Compound 7, Nelfinavir] |  | dramatically less potent |  |  | 5 |
